“Also recorded” adds a separate entry of the source.
Key:
[1] = tested on: A549 lung cancer cell line; test: MTT cell proliferation assay, cytotoxicity after 48 h treatment; format: cell-based, human; conditions: for variation in cytotoxicity with A-ring substitution: A549, 4′-Br analogues; for activity against lung cancer cell lines compared with the parent Fisetin: A549 and/or H1299
Experimental: These 4′-substituted Fisetin analogues were initially screened for cytotoxicity against the A549 lung cancer cell line following a 48 h treatment period. Cytotoxicity IC50's were quantified using the MTT cell proliferation assay. The compounds were not found to interfere with the assay by causing an increase in background absorbance, no correlation was found between the lipophilicity and cytotoxicity at this position, and the substituent size was also not found to be important.

H1299 lung cancer cells [2] = test: Cytotoxicity / cell viability of H1299 cells; format: cell-based, human; conditions: 4′-Br analogues
From the text: Analogues were also synthesised to all contain Br in the B-ring 4′-position, and in which the A-ring substitution pattern alone was varied. […] Based on the strong activity of analogue 3c, it was selected together with analogues 3a and 3e for further mechanistic evaluation in lung cancer cells.

A549 cells [3] = test: Western blot of signalling, cell cycle and apoptosis markers; format: cell-based, human; conditions: IC50 concentration and 20 μM
From the text: (§1) Similarly, in H1299 cells analogue 3a induced a 11.7 to 14.9% cell death (FIG. 4D right) compared to 3.8% in control cells. Analogue 3c (FIG. 4E right) and analogue 3e (FIG. 4F right) induced cell death of 8.2 to 15.1% and 8.8 to 16.6% respectively. For western blot experiments, two concentrations were used, i.e. the IC50 concentration and the next higher concentration utilized for cell proliferation for each cell line.
The expression of pro-oncogenic signalling molecules, which are involved in proliferation and survival of cancer cells, were evaluated.
The effect of the Fisetin analogues on molecular markers of apoptosis was assessed.

H1299 lung cancer cells [4] = test: Trypan blue cell exclusion assay, cell proliferation and death; format: cell-based; conditions: Homo sapiens, NCI-H1299, H1299, 48 h, read-out: IC50 concentration
Experimental: (§2) To evaluate the effect of Fisetin analogues 3a, 3c and 3e on cell proliferation and death of human lung cancer cells, trypan blue cell exclusion assays were performed. A549 and H1299 cancer cells were treated with different concentrations of three selected Fisetin analogues for 48 h. The Fisetin analogues decreased the viability of cells and caused cell death in both the cell lines in a concentration dependent fashion. A549 and H1299 cells were treated with 5, 10 and 20 μM of Fisetin analogues for 48 h. All three analogues decreased cell proliferation and induced cell death.

A549 cells [5] = test: as above; format: cell-based; conditions: Homo sapiens, A549, 48 h, read-out: IC50 concentration
Experimental: as §2

A549 [6] = test: Cell cycle distribution, propidium iodide flow cytometry; format: cell-based, human; conditions: 10 & 20 μM, 48 h
Experimental: (§3) To examine the effect of Fisetin analogues on cell cycle regulation, cells were treated with different concentrations of Fisetin analogues (5, 10 & 20 μM) for 48 h, then stained with propidium iodide and subjected to flow cytometry. All three of the tested Fisetin analogues induced G2/M phase cell cycle arrest in A549 (FIGS. 5A-5C) and H1299 human lung cancer cells (FIGS. 5D-5F).

[7] = tested on: H1299 human lung cancer cells; test: as above; format: cell-based; conditions: 48 h; for G2/M phase arrest: H1299
Experimental: as §3

H1299 cells = test: Western blot of signalling, cell cycle and apoptosis markers; format: cell-based, human
From the text: as §1
In H1299 cells (FIG. 4H), the higher concentrations of all three Fisetin analogues decreased the expression of pErk1/2. […]
The decreased expression of these proteins explains the decreased cell proliferation in both A549 and H1299 cells. […] Consistent with A549 data, all three the Fisetin analogues decreased the expression of anti-apoptotic protein Bcl-2 at both the concentrations. In H1299 cells, all the analogues increased cleaved Caspase-3 compared to control untreated cells. Thus, modulation of apoptosis regulatory proteins has caused apoptosis in both A549 and H1299 cells by the tested Fisetin analogues.

H1299 cancer cells = test: Apoptosis assay; format: cell-based, human; conditions: 48 h
From the text: [Worded in the source for another cell line; used here, by the source, with some conditions changed.] (§4) In A549, analogue 3a induced 8.2 and 11.2% apoptosis, analogue 3c induced 13.4 and 17.2% apoptosis, and analogue 3e induced 10.6 to 19.5% apoptosis compared to 4.7% in control cells (FIG. 6A).

A549 [8] = test: Apoptosis assay; format: cell-based, human; conditions: 48 h, control cells 4.7%
From the text: as §4

[9] = cited from earlier work

Compound: O=c1c(O)c(-c2ccc(Br)cc2)oc2cccc(O)c12 [analogue 3f, 4′-Bromo-3,5-dihydroxyflavone]
- variation in cytotoxicity with A-ring substitution [1]: little variation in cytotoxicity
- variation in cytotoxicity with A-ring substitution (H1299 lung cancer cells [2]): little variation in cytotoxicity

Compound: COc1ccc(-c2oc3cc(O)ccc3c(=O)c2O)cc1 [analogue 3m, 4′-Methoxy-3,7-dihydroxyflavone]
- activity compared to that predicted by the para-Hammett constant ([1]; A549, MTT, 48 h): enhanced activity compared to that predicted by the para-Hammett constant

Compound: CS(=O)(=O)c1ccc(-c2oc3cc(O)ccc3c(=O)c2O)cc1 [analogue 3p, 4′-Methylsulfone-3,7-dihydroxyflavone]
- cytotoxicity, in words ([1]; A549, MTT, 48 h): particularly active
- activity against lung cancer cell lines compared with the parent Fisetin [1]: substantially more active

Compound: O=c1c(O)c(-c2ccc(Cl)cc2)oc2cc(O)ccc12 [analogue 3g, 4′-Chloro-3,7-dihydroxyflavone]
- cytotoxicity, in words ([1]; A549, MTT, 48 h): particularly active
- activity against lung cancer cell lines compared with the parent Fisetin [1]: substantially more active

Compound: COCOc1ccc2oc(-c3ccc(Br)cc3)c(O)c(=O)c2c1 [analogue 3d, 4′-Bromo-3-hydroxy-6-methoxymethoxyflavone]
- variation in cytotoxicity with A-ring substitution [1]: little variation in cytotoxicity
- variation in cytotoxicity with A-ring substitution (H1299 lung cancer cells [2]): little variation in cytotoxicity

Compound: O=c1c(O)c(-c2ccc(Br)cc2)oc2ccccc12 [analogue 3a, 4′-Bromo-3-hydroxyflavone]
- cleaved caspase-3 (A549 cells [3]): increased the cleavage of caspase-3 significantly
- expression of p21 (A549 cells [3]): increased the expression of p21 marginally at both the concentrations
- expression of phospho Cdc-2 (A549 cells [3]): slightly decreased the phospho form of Cdc-2 at higher concentration
- expression of phospho-Erk1/2 (A549 cells [3]): decreased the expression of phospho-Erk1/2 significantly at both the concentrations
- expression of pro-apoptotic protein Bax (A549 cells [3]): slightly increased the expression of pro-apoptotic protein Bax
- total Stat-3 expression (A549 cells [3]): not affected
- total form of Akt (A549 cells [3]): slightly downregulated
- total form of Erk1/2 (A549 cells [3]): not affected
- IC50 (H1299 lung cancer cells [4]): 4.5 µM
- IC50 (A549 cells [5]): 11.9 µM
- G2/M phase arrest (A549 [6]): induced G2/M phase arrest in both the cell lines significantly
- G2/M phase arrest ([7]; 10 & 20 μM): induced G2/M phase arrest in both the cell lines significantly
- Phospho-Cdc-2 expression (H1299 cells; IC50 concentration and 10 μM): marginally decreased
- Total Cdc-2 (H1299 cells; IC50 concentration and 10 μM): marginally affected by higher concentration
- expression of Bax (H1299 cells; IC50 concentration and 10 μM): slightly higher
- expression of phospho Akt (H1299 cells; IC50 concentration and 10 μM): did not affect the expression of phospho and total Akt at both the concentrations
- expression of phospho-EGFR (H1299 cells; IC50 concentration and 10 μM): lower concentration of analogue 3a did not affect the expression of both phospho and total EGFR; also recorded: higher concentration of analogue 3a significantly decreased the expression of both phospho and total EGFR
- expression of total Akt (H1299 cells; IC50 concentration and 10 μM): did not affect the expression of phospho and total Akt at both the concentrations
- expression of total EGFR (H1299 cells; IC50 concentration and 10 μM): lower concentration of analogue 3a did not affect the expression of both phospho and total EGFR; also recorded: higher concentration of analogue 3a significantly decreased the expression of both phospho and total EGFR
- apoptosis (H1299 cancer cells; IC50 concentration): 13.2%
- apoptosis (H1299 cancer cells; higher concentration 10 μM): 17.8%
- apoptosis (A549 [8]; IC50 concentration): 8.2%
- apoptosis (A549 [8]; higher concentration 20 μM): 11.2%

Compound: COCOc1ccc2c(=O)c(O)c(-c3ccc(Br)cc3)oc2c1 [analogue 3b, 4′-Bromo-3-hydroxy-7-methoxymethoxyflavone]
- variation in cytotoxicity with A-ring substitution [1]: little variation in cytotoxicity
- variation in cytotoxicity with A-ring substitution (H1299 lung cancer cells [2]): little variation in cytotoxicity

Compound: O=c1c(O)c(-c2ccc(C(F)(F)F)cc2)oc2cc(O)ccc12 [analogue 3n, 4′-Trifluoromethyl-3,7-dihydroxyflavone]
- cytotoxicity, in words ([1]; A549, MTT, 48 h): particularly active
- activity against lung cancer cell lines compared with the parent Fisetin [1]: substantially more active

Compound: O=c1c(O)c(-c2ccc(Br)cc2)oc2ccc(O)cc12 [analogue 3e, 4′-Bromo-3,6-dihydroxyflavone]
- cleaved caspase-3 (A549 cells [3]): both the concentrations of analogue 3e increased the cleaved caspase-3 marginally
- expression of p21 (A549 cells [3]): increased the p21 expression to a much higher level at both the concentrations
- expression of phospho Cdc-2 (A549 cells [3]): IC50 concentration decreased the expression to some extent; also recorded: the higher concentrations decreased the phospho-Cdc-2 expression significantly
- expression of phospho-Erk1/2 (A549 cells [3]): decreased the expression of phospho-Erk1/2 significantly at both the concentrations
- expression of phospho-Stat-3 (A549 cells [3]): completely abolished the expression of p-Stat-3
- expression of pro-apoptotic protein Bax (A549 cells [3]): increased the expression of Bax with much higher potential
- total Stat-3 expression (A549 cells [3]): significantly decreased the expression of total Stat-3
- total form of Akt (A549 cells [3]): decreased the expression of total Akt at both the concentrations
- total form of Erk1/2 (A549 cells [3]): not affected
- variation in cytotoxicity with A-ring substitution [1]: little variation in cytotoxicity
- IC50 (H1299 lung cancer cells [4]): 3.1 µM
- IC50 (A549 cells [5]): 12.3 µM
- variation in cytotoxicity with A-ring substitution (H1299 lung cancer cells [2]): little variation in cytotoxicity
- G2/M phase arrest (A549 [6]): induced G2/M phase arrest in both the cell lines significantly
- S-phase arrest ([7]; 20 μM, cell line not given): induced S-phase arrest
- G2/M phase arrest ([7]; 5 μM): induced G2/M phase arrest
- G2/M phase arrest ([7]; 10 & 20 μM): induced G2/M phase arrest in both the cell lines significantly
- Phospho-Cdc-2 expression (H1299 cells; IC50 concentration and 10 μM): both concentrations of analogue 3e decreased the expression of phospho-Cdc-2
- Total Cdc-2 (H1299 cells; IC50 concentration and 10 μM): no effect
- expression of Bax (H1299 cells; IC50 concentration and 10 μM): increased the expression of pro-apoptotic protein Bax
- expression of phospho Akt (H1299 cells; IC50 concentration and 10 μM): significantly decrease the phospho Akt
- expression of phospho-EGFR (H1299 cells; IC50 concentration and 10 μM): significantly decreased the expression of phospho-EGFR
- expression of total Akt (H1299 cells; IC50 concentration and 10 μM): did not affect the total Akt
- expression of total EGFR (H1299 cells; IC50 concentration and 10 μM): did not affect the expression levels of total EGFR
- expression of total Erk1/2 (H1299 cells; IC50 concentration and 10 μM): decreased the expression of total Erk1/2 significantly
- expression of total Stat-3 (H1299 cells; higher concentration (10 μM)): decreased the expression of total Stat-3 at higher concentrations
- apoptosis (H1299 cancer cells; IC50 concentration): 12.1%
- apoptosis (H1299 cancer cells; higher concentration 10 μM): 19.5%
- apoptosis (A549 [8]; IC50 concentration): 10.6%
- apoptosis (A549 [8]; higher concentration 20 μM): 19.5%

Compound: O=c1c(O)c(-c2ccc(O)c(O)c2)oc2cc(O)cc(O)c12 [quercetin]
- pKa of the 4′-hydroxyl group [9]: ~ 9.4
- pKa of the 7-hydroxyl group ([9]; most acidic position): ~ 7.3
